This passage reports IC50 results from US20260308157A1, “Pyrrolopyrazine Compounds, Preparation Thereof and Therapeutic Uses Thereof” (Sanofi, priority 2023, published 2026).

As a reminder, the IC50 is the point on the concentration scale where inhibition reaches its midpoint.

The target in one assay is T1, Cellular ERK5 Activity (Homo sapiens, UniProt Q13164).
T1 construct: MEF2-response-element luciferase reporter (pGreenFire1)
In words: Inhibition of Cellular ERK5 Activity (cell-based assay, MEF2 luciferase reporter in SN12C cells). The following applies: renal cancer cell line SN12C, doxycycline-induced MEK5DD, 0.3-10000 nM, mean where repeated. The protocol:
(§1) Two assays were performed to assess the ERK5 inhibitory activity of compounds of the Examples, a cell-based assay and a cell-free biochemical assay. Where repeat measurements were taken, the value reported is a mean average.
Inhibition of Cellular ERK5 Activity
The renal cancer cell line SN12C was transduced by a lentivirus pGreenFire1 MEF2 EF1 Neo (ref TR030VA-N) from SBI using standard infection protocol. pGreenFire1 MEF2 EF1 Neo allows the expression of luciferase gene under the control of minimal promoter with MEF2 transcriptional response elements. Cells harboring the reporter construct were selected by geneticin treatment. The selected cells were then transposed by a piggyback based plasmid pCM4007 allowing the expression of constitutively activated MEK5DD under control of TREG3 promoter, a doxycycline regulated promoter. Transposed cells were selected by puromycin treatment. Upon doxycycline treatment (1 μg/ml) MEK5DD was expressed. MEK5DD activates ERK5 that phosphorylates MEF2C protein. Activated MEF2C protein can bind to its transcriptional response elements. Then the luciferase is expressed. In a 96-well plate (96F nuncleon ref137101 thermofisher), 50,000 cells were inoculated in 142.5 μl of RPMI medium containing 10% fetal calf serum, 1% glutamine, and 1 μg/ml doxycycline. After 24 hours, compounds were added in 7.5 μl culture medium (with 2% DMSO to give a final concentration of 0.1%) in order to obtain the desired concentration (0.3-10000 nM). The luciferase activity was measured using the Kit Bright Glo Luminescent Cell Assay Cat E2610 (Promega) according to the manufacturer's protocol. Luminescence was determined using 0.2 second reading/well using a Tecan SPARK. IC50 values were calculated using XLFIT5 for Microsoft Excel using method 205. The IC50 values represent the concentration of compound which inhibits the measurable luminescence signal by 50% as compared to DMSO-treated control cells.
In general terms: A reporter such as luciferase makes a cellular process visible.

Assay [1] deals with T2, activated catalytic domain of protein ERK5 (Homo sapiens, UniProt Q13164).
T2 construct: purchased CarnaBiosciences #04-146
In words: Cell-Free Assay of ERK5 Inhibition (Time-Resolved Forster Resonance Energy Transfer). It is filed as biochemical. Conditions: ERK5 4 nM, 1 mM ATP, 1 μM biotinylated 4EBP1 peptide, 30 min at 37° C.; TR-FRET; mean where repeated. The protocol:
as §1
Cell-Free Assay of ERK5 Inhibition
An assay was performed to measure the capacity of each compound to inhibit ERK5 enzymatic activity. Compound potency was evaluated by Time-Resolved Forster Resonance Energy Transfer (FRET system). The activated catalytic domain of protein ERK5 (CarnaBiosciences #04-146) was mixed at 4 nM with varying concentrations of compound and incubated for 30 minutes at room temperature. A mixture of 1 mM ATP and 1 μM biotinylated synthetic peptide was added (Biosyntan GmbH). This synthetic peptide represents amino acids 30-52 of Eukaryotic translation initiation factor 4E-binding protein 1 (see, e.g., the sequence under accession No. NP_004086.1) biotinylated at the N-terminus. After 30 minutes at 37° C., the peptide phosphorylation by ERK5 was measured by addition of FRET reagents consisting of 12.5 µg/ml Streptavidin-XL665, 1 nM Anti-P-4EBP1 antibody and 300 ng/ml Anti-rabbit-K antibody. Following 90 minutes at room temperature fluorescent signals were read on the Pherastar FSX multimod detector from BMG Labtech (Exc° 340 nm, Em1 620 nm, Em2 665 nm). The IC50 values represent the concentration of compound which inhibits the measurable fluorescence signal by […] as compared to the DMSO only control.
(In TR-FRET formats the signal depends on donor and acceptor labels being close together.)

T2 sequence (Q13164 55-347 limits assumed): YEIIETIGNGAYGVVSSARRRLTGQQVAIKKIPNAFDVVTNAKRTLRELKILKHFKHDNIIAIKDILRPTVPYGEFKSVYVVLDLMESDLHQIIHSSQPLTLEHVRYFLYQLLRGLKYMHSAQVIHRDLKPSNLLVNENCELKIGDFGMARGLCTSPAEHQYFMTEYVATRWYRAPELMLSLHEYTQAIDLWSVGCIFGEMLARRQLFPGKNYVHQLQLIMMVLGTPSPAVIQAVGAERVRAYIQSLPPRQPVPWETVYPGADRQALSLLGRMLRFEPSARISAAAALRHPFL
T1 sequence (Q13164 whole entry): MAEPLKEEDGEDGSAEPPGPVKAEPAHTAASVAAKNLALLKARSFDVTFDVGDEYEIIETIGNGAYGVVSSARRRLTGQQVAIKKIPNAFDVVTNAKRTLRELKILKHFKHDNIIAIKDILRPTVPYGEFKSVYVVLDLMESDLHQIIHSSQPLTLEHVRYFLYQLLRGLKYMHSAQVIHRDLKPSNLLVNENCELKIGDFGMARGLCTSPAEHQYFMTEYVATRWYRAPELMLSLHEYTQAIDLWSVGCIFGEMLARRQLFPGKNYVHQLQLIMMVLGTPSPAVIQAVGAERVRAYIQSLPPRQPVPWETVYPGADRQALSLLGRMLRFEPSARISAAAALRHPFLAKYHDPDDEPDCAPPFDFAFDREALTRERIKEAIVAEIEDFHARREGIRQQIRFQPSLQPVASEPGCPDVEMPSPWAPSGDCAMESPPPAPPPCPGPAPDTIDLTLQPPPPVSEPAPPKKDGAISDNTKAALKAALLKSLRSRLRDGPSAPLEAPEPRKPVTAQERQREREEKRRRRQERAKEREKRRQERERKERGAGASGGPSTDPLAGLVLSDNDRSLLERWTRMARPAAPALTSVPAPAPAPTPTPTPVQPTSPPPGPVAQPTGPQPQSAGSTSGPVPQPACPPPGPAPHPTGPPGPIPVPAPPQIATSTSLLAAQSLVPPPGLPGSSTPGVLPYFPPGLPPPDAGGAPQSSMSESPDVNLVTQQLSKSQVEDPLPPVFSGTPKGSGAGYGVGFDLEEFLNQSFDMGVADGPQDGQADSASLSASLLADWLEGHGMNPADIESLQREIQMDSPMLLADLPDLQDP

For `Nc1cc(S(F)(F)(F)(F)F)ccc1C(=O)N1CCC(c2c[nH]c3ncc(C4CCOCC4)nc23)C1` (racemic) [Example 43, (rac)-[2-amino-4-(pentafluoro-λ^6-sulfanyl)phenyl]-[3-(2-tetrahydropyran-4-yl-5H-pyrrolo[2,3-b]pyrazin-7-yl)pyrrolidin-1-yl]methanone], the values for the IC50 (at Cellular ERK5 Activity; in assay [1]) were 357 nM and 9720 nM, respectively.

As to `CN1CCC(c2cnc3[nH]cc(C4CCN(C(=O)c5ccc(S(F)(F)(F)(F)F)cc5N)CC4)c3n2)CC1` [Example 16, [2-Amino-4-(pentafluoro-λ^6-sulfanyl)phenyl]-[4-[2-(1-methyl-4-piperidyl)-5H-pyrrolo[2,3-b]pyrazin-7-yl]-1-piperidyl]methanone], the figures for the IC50 (at Cellular ERK5 Activity; in assay [1]) were 25 nM and 38 nM, respectively.

In the case of `Nc1cc(OC(F)(F)F)ccc1C(=O)N1CCC(c2c[nH]c3ncc(O[C@@H]4CCOC4)nc23)CC1` [Example 28, [2-amino-4-(trifluoromethoxy)phenyl]-[4-[2-[(3R)-tetrahydrofuran-3-yl]oxy-5H-pyrrolo[2,3-b]pyrazin-7-yl]-1-piperidyl]methanone], the IC50 against Cellular ERK5 Activity was 190 nM; in assay [1] it was 405 nM.

Regarding `Nc1cc(OC(F)(F)F)ccc1C(=O)N1CCC(c2c[nH]c3ncc(C4CCCCC4)nc23)CC1` [Example 9, [2-Amino-4-(trifluoromethoxy)phenyl]-[4-(2-cyclohexyl-5H-pyrrolo[2,3-b]pyrazin-7-yl)-1-piperidyl]methanone], the values for the IC50 (at Cellular ERK5 Activity; in assay [1]) were 156 nM and 2150 nM, respectively.

Turning to `O=C(c1ccc(C(O)(C(F)(F)F)C(F)(F)F)cc1)N1CCC(c2c[nH]c3ncc(C4CCOCC4)nc23)CC1` [Example 42, [4-(2-tetrahydropyran-4-yl-5H-pyrrolo[2,3-b]pyrazin-7-yl)-1-piperidyl]-[4-[2,2,2-trifluoro-1-hydroxy-1-(trifluoromethyl)ethyl]phenyl]methanone], the values for the 50% inhibitory concentration (IC50) (on Cellular ERK5 Activity; in assay [1]) were 480 nM and greater than 30000 nM, respectively.

Turning to `CN1CCN(c2cnc3[nH]cc(C4CCN(C(=O)c5ccc(OC(F)(F)F)cc5)CC4)c3n2)CC1` [Example 31, [4-[2-(4-methylpiperazin-1-yl)-5H-pyrrolo[2,3-b]pyrazin-7-yl]-1-piperidyl]-[4-(trifluoromethoxy)phenyl]methanone, formic acid], the IC50 on Cellular ERK5 Activity came to 86 nM; in assay [1], 189 nM.

In the case of `Nc1cc(S(F)(F)(F)(F)F)ccc1C(=O)N1CCC(c2c[nH]c3ncc(C4CCOCC4)nc23)CC1` [Example 18, [2-Amino-4-(pentafluoro-λ^6-sulfanyl)phenyl]-[4-(2-tetrahydropyran-4-yl-5H-pyrrolo[2,3-b]pyrazin-7-yl)-1-piperidyl]methanone], the half-maximal inhibitory concentration (IC50) on Cellular ERK5 Activity worked out at 34 nM; in assay [1] it was 330 nM.

For `O=C(c1ccc(S(F)(F)(F)(F)F)cc1)N1CCC(c2c[nH]c3ncc(C4CCN(C5CC5)CC4)nc23)CC1` [Example 20, [4-[2-(1-Cyclopropyl-4-piperidyl)-5H-pyrrolo[2,3-b]pyrazin-7-yl]-1-piperidyl]-[4-(pentafluoro-λ^6-sulfanyl)phenyl]methanone], the IC50 against Cellular ERK5 Activity came out at 201 nM; in assay [1] it was 282 nM.

`O=C(c1ccc(OC(F)(F)F)cc1)N1CCC(c2c[nH]c3ncc(N4CCOCC4)nc23)CC1` [Example 40, [4-(2-morpholino-5H-pyrrolo[2,3-b]pyrazin-7-yl)-1-piperidyl]-[4-(trifluoromethoxy)phenyl]methanone]: the IC50 is 180 nM against Cellular ERK5 Activity and 1010 nM in assay [1].

On to `Nc1cc(OC(F)(F)F)ccc1C(=O)N1CCC(c2c[nH]c3ncc(NC4CCOC4)nc23)CC1` (single isomer, unassigned; isomer 1) [Example 34, [2-amino-4-(trifluoromethoxy)phenyl]-[4-[2-[[tetrahydrofuran-3-yl]amino]-5H-pyrrolo[2,3-b]pyrazin-7-yl]-1-piperidyl]methanone, Isomer 1], for which the values for the concentration for half-maximal inhibition (IC50) (on Cellular ERK5 Activity; in assay [1]) were greater than 10000 nM and 94 nM, respectively.

For `CN1CCC(c2cnc3[nH]cc(C4CCN(C(=O)c5ccc(S(F)(F)(F)(F)F)cc5)CC4)c3n2)CC1` [Example 15, [4-[2-(1-Methyl-4-piperidyl)-5H-pyrrolo[2,3-b]pyrazin-7-yl]-1-piperidyl]-[4-(pentafluoro-λ^6-sulfanyl)phenyl]methanone], the IC50 worked out at 96 nM against Cellular ERK5 Activity and 98 nM in assay [1].

For the molecule `O=C(c1ccc(OC(F)(F)F)cc1)N1CCC(c2c[nH]c3ncc(NC4CCOCC4)nc23)CC1` [Example 38, [4-[2-(tetrahydropyran-4-ylamino)-5H-pyrrolo[2,3-b]pyrazin-7-yl]-1-piperidyl]-[4-(trifluoromethoxy)phenyl]methanone], the IC50 on Cellular ERK5 Activity is 166 nM; in assay [1], 993 nM.

For `COCCCc1cnc2[nH]cc(C3CCN(C(=O)c4ccc(OC(F)(F)F)cc4N)CC3)c2n1` [Example 7, [2-Amino-4-(trifluoromethoxy)phenyl]-[4-[2-(3-methoxypropyl)-5H-pyrrolo[2,3-b]pyrazin-7-yl]-1-piperidyl]methanone], the IC50 against Cellular ERK5 Activity was 56 nM; in assay [1], 169 nM.

For the molecule `O=C(c1ccc(C(F)(F)C(F)(F)F)cc1)N1CCC(c2c[nH]c3ncc(C4CCOCC4)nc23)CC1` [Example 22, [4-(1,1,2,2,2-Pentafluoroethyl)phenyl]-[4-(2-tetrahydropyran-4-yl-5H-pyrrolo[2,3-b]pyrazin-7-yl)-1-piperidyl]methanone], the IC50 on Cellular ERK5 Activity was found to be 279 nM; in assay [1], 1140 nM.

For the molecule `O=C(c1ccc(OC(F)(F)F)cc1)N1CCC(c2c[nH]c3ncc(C4CCOCC4)nc23)CC1` [Example 3, [4-(2-Tetrahydropyran-4-yl-5H-pyrrolo[2,3-b]pyrazin-7-yl)-1-piperidyl]-[4-(trifluoromethoxy)phenyl]methanone], the values for the half-inhibitory concentration (IC50) (on Cellular ERK5 Activity; in assay [1]) were 41 nM and 172 nM, respectively.

In the case of `Nc1cc(OC(F)(F)F)ccc1C(=O)N1CCC(c2c[nH]c3ncc(NC4CCOC4)nc23)CC1` (racemic) [Example 37, (rac)-[2-amino-4-(trifluoromethoxy)phenyl]-[4-[2-[[tetrahydrofuran-3-yl]amino]-5H-pyrrolo[2,3-b]pyrazin-7-yl]-1-piperidyl]methanone], the IC50 is 60 nM at Cellular ERK5 Activity and 94 nM in assay [1].

On to `Nc1cc(OC(F)(F)F)ccc1C(=O)N1CCC(c2c[nH]c3ncc(C4CCOCC4)nc23)CC1` [Example 2, [2-Amino-4-(trifluoromethoxy)phenyl]-[4-(2-tetrahydropyran-4-yl-5H-pyrrolo[2,3-b]pyrazin-7-yl)-1-piperidyl]methanone], for which the 50% inhibitory concentration (IC50) against Cellular ERK5 Activity worked out at 15 nM; in assay [1] it was 37 nM.

In the case of `Nc1cc(OC(F)(F)F)ccc1C(=O)N1CCC(c2c[nH]c3ncc(NC4CCOC4)nc23)CC1` (single isomer, unassigned; isomer 2) [Example 35, [2-amino-4-(trifluoromethoxy)phenyl]-[4-[2-[[tetrahydrofuran-3-yl]amino]-5H-pyrrolo[2,3-b]pyrazin-7-yl]-1-piperidyl]methanone, Isomer 2], the IC50 at Cellular ERK5 Activity was 246 nM; in assay [1], 131 nM.

Turning to `O=C(c1ccc(OC(F)(F)F)cc1)N1CCC(c2c[nH]c3ncc(C4CCCCC4)nc23)CC1` [Example 8, [4-(2-Cyclohexyl-5H-pyrrolo[2,3-b]pyrazin-7-yl)-1-piperidyl]-[4-(trifluoromethoxy)phenyl]methanone], the IC50 amounted to 226 nM against Cellular ERK5 Activity and 25900 nM in assay [1].

As to `Nc1cc(OC(F)(F)F)ccc1C(=O)N1CCC(c2c[nH]c3ncc(C4CCN(C5CC5)CC4)nc23)CC1` [Example 10, [2-Amino-4-(trifluoromethoxy)phenyl]-[4-[2-(1-cyclopropyl-4-piperidyl)-5H-pyrrolo[2,3-b]pyrazin-7-yl]-1-piperidyl]methanone], the values for the concentration for half-maximal inhibition (IC50) (at Cellular ERK5 Activity; in assay [1]) were 28 nM and 23 nM, respectively.
